Measurements published in US20160214958A1, “COMPOUNDS AND USE FOR TREATING CANCER” (GLIONOVA AB, priority 2013, published 2016).
Where two headings read alike, the source gives them in different places.

What was measured:
phospho-MKK4 = assay: Western blot of GSC for phospho-MKK4; assay type: cell-based, human; details: GSCs; remained at similar levels for at least 26 hrs
Text: A genome wide screen with shRNA libraries was used to identify pathways for S10 induced macropinocytosis. The approach was based on the idea that depleting a key factor in the pathway should render GSCs refractive to S10 induced death. Three different DECIPHER pooled lentiviral shRNA libraries consisting of 82500 shRNA covering 15377 genes grouped into Human Module 1 (genes associated with various signaling pathways), Human Module 2 (disease-associated genes) and Human Module 3 (genes associated with cell surface, extracellular and DNA binding), were used to transduce U3013MG GSCs. Four days later, 14 μM S10 was added for one day after which cells were cultured in standard medium for five month. Surviving cells were thereafter dissociated and further expanded. […] Phospho-MKK4 increased within 5 min of S10 exposure and remained at similar levels for at least 26 hrs of stimulation. […]
Whole-cell extracts were prepared in SDS-buffer (25 mM Tris-HCl, pH 7.5, 1 mM EDTA, protease inhibitor cocktail (Roche), and phosphatase inhibitors [2 mM sodium orthovanadate, 20 mM beta-glycerolphosphate], and 1% SDS). The samples were analysed by western blot as described previously (Aranda et al. (2008) Mol Cell Biol, 28, 5899-5911) with the following antibodies: anti-Histone H3 (Abcam), antitrimethyl(Lys27)-Histone H3 (Millipore) and anti-phospho(S257/Thr261)-SEK1/MKK4 (R&D Systems).

[1] = system: glioma stem cell line U3013; assay: In vitro cancer cell and CSC viability assay (ATP quantification, CellTiterGlo); assay type: cell-based; details: Homo sapiens; 3000 cells/cm2, after 24 hours; read-out: EC50, viability of GSCs
Caspase-3 and Caspase-7 = Caspase-3 and Caspase-7 enzymatic activity in GSC; assay type: cell-based, human; details: 5-30 μM, 2 to 600 minutes
Experimental: A distinctive feature of apoptosis is the rapid loss of ATP associated with decoupling of the respiratory chain. Death of GSCs was therefore examined in the presence of the apoptosis inhibitor Q-VAD. […] However, Q-VAD only modestly rescued S10 treated cells from death at 3 and 7 hrs. […] Caspase-3 and Caspase-7 enzymatic activity was measured at 2, 15, 30, 60, 120, 120, 240, 360 and 600 minutes after addition of S10 at increasing concentrations from 5-30 μM. […] The rapid depletion of ATP by S10 led us to therefore examine the mitochondria. The accumulation of tetramethylrhodamine ethyl ester (TMRE) in mitochondria and […] is driven by their membrane potential. TMRE incorporation in mitochondria was largely unaffected by S10. […]
For measuring cell viability, cytotoxicity and apoptosis in GSC/fibroblast/mGlia cells were grown in 384-well microtiter plates using procedure described above. […] Cell viability, cytotoxcity and apoptosis were measured using CellTiter-Glo® Luminescent Cell Viability Assay (Promega), CytoTox-Glo Cytotoxicity Assay and […], according to manufacturer's instructions. […] Luminescence was measured using a Victor3 FA (Perkin Elmer) microtiterplate reader and the level of released Caspase 3/7 quantified relative to control using GraphPad Prism (v6.02) software.

[2] = system: glioma stem cell line U3013; assay: In vitro cancer cell and CSC viability assay (ATP quantification, CellTiterGlo); assay type: cell-based, human; details: Homo sapiens; U3013, 24 hours exposure; read-out: In vitro efficacy (viability) EC50
Experimental: The ability of Examples S1-S23 to selectively induce cytotoxicity in glioma/glioblastoma cancer cells or glioma/glioblastoma cancer stem cells was determined by quantification of ATP production in glioma stem cell line U3013 in the presence of using CellTiterGlo reagent (Promega). Cells were exposed to compound in serial dilution in the range 1 nM to 50 µM for 24 hours and viability assessed with respect to negative control (dmso, no cell death) and positive control (staurosporine, full cell death). […] The EC50 of S10 remained largely similar at 2, 3 and 4 days of incubation. […] The individual isomers (S21-S23) of racemic S10 were evaluated in order to determine the enantiospecific pharmacology of the individual isomers.
Negative (100% DMSO) and positive (10 mM S10 in 100% DMSO) controls were placed in rows 1-4 and 5-8, respectively, of column 12. The wells were diluted with 190 μl of the corresponding growth media and 5 μl of each well of compound solution transferred to quadruplicate wells of a sterile 384-well black clear bottom plate (BD Falcon) containing GSC at 70% confluency in 45 μl growth media. The plate was incubated for 24 hours, after which the plate was removed from the incubator and each well imaged in bright-field using an Operetta Imaging system (PerkinElmer) at 37° C. and 5% CO2 to determine vacuole accumulation at each concentration. The plate was then allowed to cool to room temperature and each well treated with 25 μl freshly CellTiterGlo (Promega) reagent. The plate was shaken for 15 minutes and luminescence measured using a Victor3 (Perkin Elmer) microtiterplate reader. Total luminescence was normalized relative to control and curve fitting performed using GraphPad Prism (v6.02) software.

SMILES: OC(c1cc(-c2ccc(Cl)cc2)nc2ccccc12)C1CCCCN1 (racemic) [Compound S10, (2-(4-chlorophenyl)quinolin-4-yl)(piperidin-2-yl)methanol]
- time to increase of Phospho-MKK4 after exposure (phospho-MKK4): ≤ 5 min
- EC50 [1]: 2.36 µM
- caspase activity relative to DMSO control (Caspase-3 and Caspase-7): no effect on caspase activity
- EC50 [2]: 2.36 µM
